What was measured:
PARP2 = target: T1, PARP2 (Homo sapiens, UniProt Q9UGN5); experiment: […]NADP+ binding to immobilized protein (TLC); also inhibition of auto-PARylation
T1 construct: HIS-PARP2

NADK = target: T2, NADK (Homo sapiens, UniProt O95544); experiment: recombinant enzyme reaction, product confirmed by mass spectrometry; format: biochemical
T2 construct: recombinant NADK
T2 sequence (O95544 1-446): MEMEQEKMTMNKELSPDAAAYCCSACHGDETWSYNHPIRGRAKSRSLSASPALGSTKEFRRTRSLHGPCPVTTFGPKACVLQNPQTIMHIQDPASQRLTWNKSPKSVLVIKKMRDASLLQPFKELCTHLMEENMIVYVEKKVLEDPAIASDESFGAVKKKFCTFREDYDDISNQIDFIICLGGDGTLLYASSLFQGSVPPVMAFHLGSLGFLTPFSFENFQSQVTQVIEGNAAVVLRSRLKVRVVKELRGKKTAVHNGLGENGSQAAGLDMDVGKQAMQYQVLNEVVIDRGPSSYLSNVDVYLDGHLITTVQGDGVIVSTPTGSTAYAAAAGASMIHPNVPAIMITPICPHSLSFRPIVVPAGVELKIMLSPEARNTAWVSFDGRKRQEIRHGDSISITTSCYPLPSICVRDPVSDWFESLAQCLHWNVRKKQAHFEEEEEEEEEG

PARP10 [1] = target: T3, PARP10 (Homo sapiens, UniProt Q53GL7); experiment: […]NADP+ binding to immobilized protein (TLC); also inhibition of auto-MARylation
T3 construct: GST-PARP10
T3 sequence (Q53GL7 1-1025): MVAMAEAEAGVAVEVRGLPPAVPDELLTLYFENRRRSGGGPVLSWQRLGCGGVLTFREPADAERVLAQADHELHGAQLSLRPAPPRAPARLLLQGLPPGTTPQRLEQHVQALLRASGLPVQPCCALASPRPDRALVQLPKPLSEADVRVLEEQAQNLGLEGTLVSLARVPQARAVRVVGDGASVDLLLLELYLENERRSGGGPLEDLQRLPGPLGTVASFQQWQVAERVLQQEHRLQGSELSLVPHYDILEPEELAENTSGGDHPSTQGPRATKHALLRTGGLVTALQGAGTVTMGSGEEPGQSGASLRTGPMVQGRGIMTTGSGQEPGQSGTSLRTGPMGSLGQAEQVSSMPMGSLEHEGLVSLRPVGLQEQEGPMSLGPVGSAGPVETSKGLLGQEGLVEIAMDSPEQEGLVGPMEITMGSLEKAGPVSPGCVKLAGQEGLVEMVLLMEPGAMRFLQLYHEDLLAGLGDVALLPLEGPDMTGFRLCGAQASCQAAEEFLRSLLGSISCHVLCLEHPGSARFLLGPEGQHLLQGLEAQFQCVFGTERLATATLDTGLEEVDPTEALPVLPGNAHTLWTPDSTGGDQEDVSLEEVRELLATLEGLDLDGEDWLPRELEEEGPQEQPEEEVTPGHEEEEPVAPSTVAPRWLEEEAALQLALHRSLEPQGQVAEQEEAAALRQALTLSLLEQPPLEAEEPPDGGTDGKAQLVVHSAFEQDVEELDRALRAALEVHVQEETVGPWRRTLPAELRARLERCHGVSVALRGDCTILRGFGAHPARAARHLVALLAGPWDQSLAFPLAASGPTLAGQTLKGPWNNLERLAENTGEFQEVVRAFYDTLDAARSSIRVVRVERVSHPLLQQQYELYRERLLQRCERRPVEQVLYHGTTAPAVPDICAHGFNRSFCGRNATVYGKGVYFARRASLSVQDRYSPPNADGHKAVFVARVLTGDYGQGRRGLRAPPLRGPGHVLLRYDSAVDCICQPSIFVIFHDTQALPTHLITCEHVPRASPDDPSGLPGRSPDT

PARP1 [2] = target: T4, PARP1 (Homo sapiens, UniProt P09874); experiment: ITC; also […]NADP+ pull-down binding and inhibition of auto-PARylation; parameters: catalytic domain (GST-PARP1 CAT, aa. 662–1014) for ITC
Target sequence in this assay (P09874 662-1014): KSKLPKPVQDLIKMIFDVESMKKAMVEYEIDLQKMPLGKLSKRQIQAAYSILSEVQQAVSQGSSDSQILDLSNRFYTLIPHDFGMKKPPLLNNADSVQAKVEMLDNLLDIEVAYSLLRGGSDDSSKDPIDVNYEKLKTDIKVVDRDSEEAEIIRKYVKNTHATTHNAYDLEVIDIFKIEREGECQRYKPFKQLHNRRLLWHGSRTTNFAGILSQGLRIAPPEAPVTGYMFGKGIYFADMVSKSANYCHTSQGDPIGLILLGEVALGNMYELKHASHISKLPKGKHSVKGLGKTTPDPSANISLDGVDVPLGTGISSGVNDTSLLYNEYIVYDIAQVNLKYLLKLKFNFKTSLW

PARP10 [3] = target: T3, PARP10; experiment: in vitro auto-MARylation, autoradiography; format: biochemical
PARP1 [4] = target: T4, PARP1; experiment: in vitro auto-PARylation, western blot and […]NAD+ autoradiography; format: biochemical; parameters: HIS-PARP1
Target sequence in this assay (P09874 2-1014): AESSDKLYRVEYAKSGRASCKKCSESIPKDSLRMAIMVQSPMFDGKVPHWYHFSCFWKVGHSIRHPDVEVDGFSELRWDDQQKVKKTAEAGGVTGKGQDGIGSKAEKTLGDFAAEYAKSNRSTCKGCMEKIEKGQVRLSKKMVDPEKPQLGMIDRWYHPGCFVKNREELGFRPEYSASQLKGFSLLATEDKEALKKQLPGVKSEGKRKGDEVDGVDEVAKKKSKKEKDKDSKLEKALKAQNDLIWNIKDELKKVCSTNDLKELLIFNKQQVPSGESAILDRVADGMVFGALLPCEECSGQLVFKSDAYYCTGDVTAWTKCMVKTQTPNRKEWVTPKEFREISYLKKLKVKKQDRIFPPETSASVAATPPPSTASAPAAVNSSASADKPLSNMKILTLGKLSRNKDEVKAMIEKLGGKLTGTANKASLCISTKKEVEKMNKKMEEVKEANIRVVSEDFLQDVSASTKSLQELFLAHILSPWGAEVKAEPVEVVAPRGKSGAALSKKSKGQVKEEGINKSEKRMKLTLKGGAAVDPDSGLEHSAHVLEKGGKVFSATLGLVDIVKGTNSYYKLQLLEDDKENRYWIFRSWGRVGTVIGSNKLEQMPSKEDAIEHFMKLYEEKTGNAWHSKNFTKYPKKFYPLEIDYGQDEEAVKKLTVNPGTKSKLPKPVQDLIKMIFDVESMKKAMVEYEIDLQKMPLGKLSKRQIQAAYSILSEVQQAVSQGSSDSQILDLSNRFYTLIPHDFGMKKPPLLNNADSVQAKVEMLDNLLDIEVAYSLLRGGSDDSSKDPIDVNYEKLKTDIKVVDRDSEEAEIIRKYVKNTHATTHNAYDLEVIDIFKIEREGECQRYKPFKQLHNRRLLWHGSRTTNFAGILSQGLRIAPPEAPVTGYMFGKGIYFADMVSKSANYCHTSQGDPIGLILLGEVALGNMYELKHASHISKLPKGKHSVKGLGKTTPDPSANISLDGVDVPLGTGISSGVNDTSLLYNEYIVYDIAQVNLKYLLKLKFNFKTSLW

T1 sequence (Q9UGN5 whole entry): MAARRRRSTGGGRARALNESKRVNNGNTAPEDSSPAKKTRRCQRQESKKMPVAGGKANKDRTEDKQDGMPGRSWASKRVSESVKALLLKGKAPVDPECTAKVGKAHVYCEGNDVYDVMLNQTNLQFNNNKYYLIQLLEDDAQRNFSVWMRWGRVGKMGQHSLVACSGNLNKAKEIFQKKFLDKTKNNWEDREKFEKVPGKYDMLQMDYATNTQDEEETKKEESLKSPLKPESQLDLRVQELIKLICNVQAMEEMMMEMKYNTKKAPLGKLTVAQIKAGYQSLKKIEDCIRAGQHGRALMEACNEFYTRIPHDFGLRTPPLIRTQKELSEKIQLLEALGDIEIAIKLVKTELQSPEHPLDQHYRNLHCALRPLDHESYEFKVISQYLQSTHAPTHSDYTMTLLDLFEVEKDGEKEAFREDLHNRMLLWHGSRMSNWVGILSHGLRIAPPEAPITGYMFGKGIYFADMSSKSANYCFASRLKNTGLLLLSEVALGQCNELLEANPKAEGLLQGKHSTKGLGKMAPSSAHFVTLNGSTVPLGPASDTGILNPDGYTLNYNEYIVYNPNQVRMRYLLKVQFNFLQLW

Row | Kd (PARP1 [2]) [µM] | Structure (SMILES) | [32P]NADP+ binding to immobilized protein (TLC); also inhibition of auto-PARylat (PARP2) | recombinant enzyme reaction, product confirmed by mass spectrometry (NADK) | [32P]NADP+ binding to immobilized protein (TLC); also inhibition of auto-MARylat (PARP10 [1]) | in vitro auto-MARylation, autoradiography (PARP10 [3]) | in vitro auto-PARylation, western blot and [32P]NAD+ autoradiography (PARP1 [4])
1 | ~39 | NC(=O)c1ccc[n+]([C@@H]2O[C@H](COP(=O)(O)OP(=O)(O)OC[C@H]3O[C@@H](n4cnc5c(N)ncnc54)[C@H](OP(=O)(O)O)[C@@H]3O)[C@@H](O)[C@H]2O)c1 [NADP^+] | found that PARP1, PARP2, and PARP10 indeed were able to bind NADP^+ (Fig. 3a) | Formation of NADP^+ by our recombinant protein was confirmed by mass spectrometry | found that PARP1, PARP2, and PARP10 indeed were able to bind NADP^+ (Fig. 3a) |  | 
2 |  | NC(=O)c1ccc[n+]([C@@H]2O[C@H](COP(=O)([O-])OP(=O)(O)OC[C@H]3O[C@@H](n4cnc5c(N)ncnc54)[C@H](O)[C@@H]3O)[C@@H](O)[C@H]2O)c1 [NAD^+] |  | recombinant NADK protein that can transfer phosphate moiety from ATP to NAD^+ to synthesize NADP^+ |  | Auto-MARylation of PARP10 was examined by autoradiography | with NAD^+, PARP1 quickly synthesized PAR chains and autoPARylated itself

— article PMC6370829, “NADP^+ is an endogenous PARP inhibitor in DNA damage response and tumor suppression” (Nature Communications, 2019)
